The results in this text go back to patent US20170209403A1, “METHOD FOR REGULATING ALDEHYDE DEHYDROGENASE 1” (National Cheng Kung University, priority 2016, published 2017).

Holding throughout (assay type): cell-based, human
Test [1] concerns A2780 and CP70 ovarian cancer cells. The experiment in a line: MTT cytotoxicity assay (proliferation, doubling time). More on the design: toxicity: dose or concentration left out as unconfirmed. The settings on record: for cell proliferation: A2780 and CP70 derived cells, inhibitor treatment. On the procedure:
The cell lines were cultured in a humidified incubator containing 95% air and 5% CO2 at 37° C. in 96-well flat-bottomed microtiter plates. After 72 h of incubation, the in vitro cytotoxic effects of treatments were determined by MTT assay (at 570 nm).

In test [2] the test system is ALDH1, FoxM1 and Notch-1 expression in ES2 cells. In words: Western blotting of ALDH1, FoxM1 and Notch1. As to conditions: ES2-Low cells; Thiostrepton or DAPT.
Test [3] concerns ES2 cells (ES2-High, ES2-Low). The experiment in a line: Sphere formation assay. As to conditions: for sphere formation: ES2-High cells, different concentrations of Thiostrepton or DAPT; for decrease of sphere formation: ES2-Low cells, Thiostrepton or DAPT. The protocol: (§1) Right panel: relative fold changes of ALDH1 and FoxM1 expression compared with controls. […] Sphere formation in ES2-High cells after treatment with different concentrations of Thiostrepton or DAPT, and the relative fold changes in expression are shown (scale bar=200 μm).
(§2) Standard sphere formation assays were performed according to Zhang et al. (Zhang, S. et al. Cancer Res., 68, 4311-4320.) with minor modification. The cells (1×10^3) were resuspended in serum-free DMEM/F12 medium supplemented with 5 μg/ml insulin (Sigma), 20 ng/ml human recombinant epidermal growth factor (EGF; Invitrogen, Life Technologies, Carlsbad, Calif.) and 10 ng/ml basic fibroblast growth factor (bFGF; Invitrogen) in ultra-low attachment plates (Corning Costar, Corning, N.Y.). Spheres that arose within 1-2 weeks were counted. Colony diameters >50 μm were counted as a single-positive colony. The middle field was chosen for counting of spheres, and two fields for each plate were counted under a dissecting microscope. For all sphere formation experiments, a minimum of eight wells was run for each condition. All data represent the mean ±SEM of three separate experiments and at least 24 different fields.
(§3) An Aldefluor® kit (StemCell Technologies) was used to assess ALDH activity in the ovarian cancer cell lines, as previously described (Saw, Y. T. et al. (2012) BMC Cancer, 12, 329.). In brief, 1×10^6 cells were incubated in Aldefluor® assay buffer containing a 1.5 μM ALDH substrate for 30 min at 37° C. Each sample was treated with 50 μM of DEAB, and used as a negative control. Prior to analysis, cells were stained with […] of propidium iodide to evaluate their viability. The fluorescence intensity of the stained cells was analysed using a FACSAria cell sorter Flow Cytometer (BD Biosciences). The reaction with DEAB was used to define the baseline for the assay. The ALDH activity of a sample was determined to be ‘high’ or ‘low’ based on the fluorescence intensity beyond or below the threshold defined by the reaction with DEAB. The cells having high or low ALDH activity are marked “-High” or “-Low” hereafter.

Test [4] deals with ALDH1, FoxM1, Notch1, Oct-4 and Nanog expression in A2780 and CP70 cells. In words: Western blotting of ALDH1, FoxM1, Notch1 and CSC markers. The settings on record: for ALDH1 expression / FoxM1 expression / Notch1 expression: A2780 and CP70 cells; for ALDH1 expression: 1 μM Thiostrepton or 10 μM DAPT; for FoxM1 expression / Notch1 expression: 1 μM Thiostrepton, 10 μM DAPT, or DEAB.

For test [5], the system named is A2780 and CP70 ovarian cancer cells. In words: Sphere formation assay. As to conditions: for sphere formation efficiency: control and shALDH1 cells (A2780, CP70, CP70-vector, CP70-shALDH1), 1 μM Thiostrepton or 10 μM DAPT, 10 days. On the procedure:
FIGS. 1A-1F show ALDH1 regulates stemness and tumourigenic ability in ovarian cancer cells. […] A total of 1×10^3 A2780 (upper panel) and CP70 (lower panel) cells were seeded into a 96-well plate to evaluate the cells' sphere formation ability (scale bar=200 μm). DEAB was used to inhibit the reaction of ALDH1 and also served as a negative control. […] The β-actin was used as a protein loading control. The histogram represents the relative fold change of protein expression (right panel). […] A2780-ALDH1 (upper panel) and CP70-shALDH1 (lower panel) cells were seeded into 96-well plates to evaluate their sphere formation ability (scale bar=200 μm).
FIGS. 2A-2D show ALDH1 regulates stemness and tumourigenic ability through the FoxM1 and Notch1 signalling pathways. […] Representative images show spheres generated from single-cell cultures after 10 days. The lower panel depicts the relative sphere formation ratio (scale bar=200 μm). […] V: vector.
as §2, §3

Test [6] relates to ALDH1, FoxM1 and Notch-1 expression in ES2 cells. In words: Western blotting of ALDH1, FoxM1 and Notch1. As to conditions: ES2-High cells; for ALDH1 expression: Thiostrepton or DAPT; for FoxM1 expression / Notch1 expression: different concentrations of Thiostrepton or DAPT. The protocol:
as §1
The cells were lysed and then harvested using a cell lifter (Corning Costar). Protein concentrations were determined by Bio-Rad protein assay (Bio-Rad, Hercules, Calif.). Proteins were then separated by 10% sodium dodecyl sulphate-polyacrylamide gel electrophoresis and transferred to polyvinylidene difluoride membranes. Western blotting was performed using the following antibodies at the indicated dilutions: anti-ALDH1 (1:1000; BD Biosciences), anti-Oct4 (1:1000; BD Biosciences), anti-Nanog (1:1000; BD Biosciences), anti-Notch1 (1:1000; Abcam, Cambridge, UK), anti-FoxM1 (1:1000; Santa Cruz Biotechnology, Santa Cruz, Calif.) and anti-beta actin (1:5000; Sigma).

The next test concerns ALDH1. The experiment in a line: Aldefluor assay of ALDH1 enzyme activity / ALDH1-High cell fraction. The settings on record: A2780-Low and CP70-Low cells; ATRA (10 μM) or paclitaxel (60 ng/ml) for 4 days. The protocol: as §3

For `C[C@H](NC(=O)Cc1cc(F)cc(F)c1)C(=O)N[C@H](C(=O)OC(C)(C)C)c1ccccc1` [DAPT, N-[2S-(3,5-difluorophenyl)acetyl]-L-alanyl-2-phenyl-1,1-dimethylethyl ester-glycine], in test [1], the cell proliferation result is reported as “did not affect proliferation”. In addition, the “downregulation of FoxM1 and Notch1 expression” value in test [2] is given as “not observed”. Moreover, in test [3], the sphere formation entry is “decreased sphere formation in ES2-High cells in a dose-dependent manner” and the “decrease of sphere formation” value is given as “not observed”. Further, the “FoxM1 expression in FoxM1-overexpressing cells” value in test [4] (A2780-FoxM1 cells, immunoblot, DAPT) is listed as “failed to attenuate FoxM1 expression”. In addition, in test [4] (western blotting), the ALDH1 expression result was “did not affect ALDH1 expression”; the FoxM1 expression result is given as “decreased Notch1 expression as well as FoxM1 expression, but to a lesser extent”; the Notch1 expression entry was “decreased Notch1 expression”. Also, the sphere formation efficiency entry in test [5] is recorded as “decreased sphere formation efficiency”. In test [6], the ALDH1 expression entry was “did not affect ALDH1 expression”; the FoxM1 expression result was “downregulated the expression levels of both FoxM1 and Notch1 in ES2-High cells in a dose-dependent manner”; the Notch1 expression entry is “downregulated the expression levels of both FoxM1 and Notch1 in ES2-High cells in a dose-dependent manner”.

Consider `C=C(NC(=O)C(=C)NC(=O)c1csc(C2=N[C@@H]3c4csc(n4)[C@H]4NC(=O)c5csc(n5)[C@H]([C@](C)(O)[C@@H](C)O)NC(=O)[C@H]5CSC(=N5)/C(=C/C)NC(=O)[C@H]([C@@H](C)O)NC(=O)c5csc(n5)[C@]3(CC2)NC(=O)[C@H](C)NC(=O)C(=C)NC(=O)[C@H](C)NC(=O)[C@H]([C@@H](C)CC)N[C@@H]2C=Cc3c([C@H](C)O)cc(nc3[C@H]2O)C(=O)O[C@@H]4C)n1)C(N)=O` [Thiostrepton, thiostrepton], for which, in test [1] (A2780 and CP70-shALDH1 cells, effect not significant), the toxicity entry was “slight toxicity”. Further, the “downregulation of FoxM1 and Notch1 expression” value in test [2] was “not observed”. Besides, in test [3], the sphere formation entry is given as “decreased sphere formation in ES2-High cells in a dose-dependent manner” and the “decrease of sphere formation” value is given as “not observed”. Moreover, in test [4] (western blotting), the ALDH1 expression result is “did not affect ALDH1 expression”, the FoxM1 expression entry is on record as “reduced the expression not only of FoxM1 but also of Notch1” and the Notch1 expression entry is reported as “reduced the expression not only of FoxM1 but also of Notch1”. Further, the sphere formation efficiency result in test [5] is on record as “decreased sphere formation efficiency”. Further, in test [6], the ALDH1 expression result is given as “did not affect ALDH1 expression”; the FoxM1 expression result is “downregulated the expression levels of both FoxM1 and Notch1 in ES2-High cells in a dose-dependent manner”; the Notch1 expression entry is “downregulated the expression levels of both FoxM1 and Notch1 in ES2-High cells in a dose-dependent manner”.

For `CC(=O)O[C@H]1C(=O)[C@@]2(C)[C@H]([C@H](OC(=O)c3ccccc3)[C@]3(O)C[C@H](OC(=O)[C@H](O)[C@@H](NC(=O)c4ccccc4)c4ccccc4)C(C)=C1C3(C)C)[C@]1(OC(C)=O)CO[C@@H]1C[C@@H]2O` [paclitaxel], the “proportion of ALDH1-High cells” value in the test on ALDH1 is given as “increased proportion of ALDH1-High cells”.

`CCN(CC)c1ccc(C=O)cc1` [DEAB, diethylaminobenzaldehyde]: the cell proliferation result in test [1] is on record as “did not affect cell proliferation”. Further, in test [4] (western blotting), the FoxM1 expression result was “downregulated” and the Notch1 expression result is recorded as “downregulated”. In addition, in test [4] (ALDH1-High cells, DEAB treatment, western blotting), the “expression of CSC marker proteins FoxM1, Notch1, Oct 4 and Nanog” value is recorded as “inhibited”. Moreover, the sphere formation result in test [5] (ALDH1-High A2780 or CP70 cells, DEAB treatment) is “suppressed sphere formation”.
